Data reported in publication PMC1867856, “Structural Insights into the Evolution of a Non-Biological Protein: Importance of Surface Residues in Protein Fold Optimization” (PLoS ONE, 2007).

Key:
Type in all cases: binding, synthetic construct
protein 18-19 (N32D) = target: T1, protein 18-19 (N32D); test: equilibrium ultrafiltration with γ-[…]-ATP
T1 construct: 80-residue artificial protein as N-terminal MBP fusion

protein 18-19 (D65V) = target: T2, protein 18-19 (D65V); test: equilibrium ultrafiltration with γ-[…]-ATP
T2 construct: 80-residue artificial protein as N-terminal MBP fusion

protein 18-19 = target: T3, protein 18-19; test: X-ray crystal structure ([…] Å) and equilibrium ultrafiltration with γ-[…]-ATP
T3 construct: Kd measured on the N-terminal MBP fusion; crystal structure model residues 9-71

`Nc1ncnc2c1ncn2[C@@H]1O[C@H](COP(=O)(O)OP(=O)(O)OP(=O)(O)O)[C@@H](O)[C@H]1O` [ATP] was tested, and the Kd (protein 18-19 (N32D)) was 360 ± 12 nM, the Kd (protein 18-19 (D65V)) was 640 ± 28 nM and the Kd (protein 18-19) was 1100 ± 78 nM.
